Data as given in patent US20250221431A1, “METHOD FOR FEEDING BLACK SOLDIER FLY LARVAE WITH SELENIUM-RICH BACTERIA SOLUTION” (priority 2024, published 2025).
Like-named read-outs stand apart in the source and are kept apart here.

Experiments:
black soldier fly larvae [1] = conditions: Example 2, chicken feed, 4-day-old larvae
Procedure: Step 3, 4-day-old black soldier fly larvae were selected to be fed; the selenium-rich bacteria solution was added to chicken feed to enable the chicken feed to have a total selenium content of 100, 200, 300 mg/kg (wet weight), respectively; a moisture content of the chicken feed was controlled to 60%, then the black soldier fly larvae were fed with the chicken feed at a ratio of dry chicken feed to larva being 116 g per 150 larvae (the ratio of dry feed to larva was 0.77) in conditions of 28° C.-30° C. feeding temperature and 60%-70% air humidity level, and feeding was terminated at the end of the fifth instar of the larvae.
(§1) The effects of the selenium-rich bacteria solution on breeding of the selenium-rich black soldier flies were determined according to the indicators, i.e. growth performance of the larvae (survival rate, larva weight), bioconversion efficiency, and selenium content in the larva.
(§2) After the feeding was terminated, the obtained larvae were screened, washed, wiped dry and weighed. The survival rate was calculated according to the number of live larvae. The larvae were subjected to starvation for 1 day, then dried and weighed. The residual feed was also dried and weighed. Thereby, bioconversion efficiency was calculated according to the following: bioconversion efficiency=dry weight of the larvae/(dry weight of the added feed−dry weight of the residual feed)×100%. Selenium content in the larva was determined after smashing the dry larvae according to “GB5009.93-2017 Determination of Selenium in Food”.

black soldier fly larvae [2] = conditions: Example 3, bean pulp/bran/grass meal 3:5:2 feed, 6-day-old larvae
Procedure: as §2
as §1, with “Effects” for “The effects”, “larva. The test method for each indicator was the same as that in Example 2.” for “larva.”

black soldier fly larvae [3] = conditions: Example 4, bean pulp/bran/grass meal 3:5:2 feed, 6-day-old larvae
Procedure: as §2
as §1, with “Effects” for “The effects”, “larva. Test method for each indicator was the same as that in Example 2.” for “larva.”

black soldier fly larvae [4] = conditions: Example 5, bean pulp/bran/grass meal 3:5:2 feed, 6-day-old larvae
Procedure: as §2
as §1, with “larva. Test method for each indicator was the same as that in Example 2.” for “larva.”

[5] = selenium content added 100.00 mg/kg
[6] = selenium content added 200.00 mg/kg
[7] = selenium content added 300.00 mg/kg

O=[Se](O)O [sodium selenite]
Larva weight (black soldier fly larvae [1]; [5]): 212.39 ± 9.63 mg per larva
Larva weight (black soldier fly larvae [1]; [6]): 214.37 ± 7.56 mg per larva
Survival rate (black soldier fly larvae [1]; [6]): 94.22 ± 1.35%
Larva weight (black soldier fly larvae [1]; [7]): 210.57 ± 3.50 mg per larva
Survival rate (black soldier fly larvae [1]; [7]): 91.33 ± 4.27%
Larva weight (black soldier fly larvae [2]; [5]): 179.63 ± 9.99 mg per larva
Survival rate (black soldier fly larvae [2]; [5]): 85.04 ± 8.77%
Larva weight (black soldier fly larvae [2]; [6]): 154.41 ± 10.66 mg per larva
Survival rate (black soldier fly larvae [2]; [6]): 84.51 ± 5.06%
Larva weight (black soldier fly larvae [2]; [7]): 119.53 ± 10.79 mg per larva
Survival rate (black soldier fly larvae [2]; [7]): 82.22 ± 8.77%
Larva weight (black soldier fly larvae [3]; [5]): 183.72 ± 9.71 mg per larva
Survival rate (black soldier fly larvae [3]; [5]): 87.12 ± 6.53%
Larva weight (black soldier fly larvae [3]; [6]): 156.56 ± 11.10 mg per larva
Survival rate (black soldier fly larvae [3]; [6]): 89.27 ± 3.40%
Larva weight (black soldier fly larvae [3]; [7]): 122.15 ± 5.66 mg per larva
Survival rate (black soldier fly larvae [3]; [7]): 83.17 ± 0.97%
Larva weight (black soldier fly larvae [4]; [5]): 179.95 ± 9.51 mg per larva
Survival rate (black soldier fly larvae [4]; [5]): 85.33 ± 6.40%
Larva weight (black soldier fly larvae [4]; [6]): 153.34 ± 10.87 mg per larva
Survival rate (black soldier fly larvae [4]; [6]): 87.43 ± 3.33%
Larva weight (black soldier fly larvae [4]; [7]): 119.64 ± 5.54 mg per larva
Survival rate (black soldier fly larvae [4]; [7]): 81.46 ± 0.96%
